Earlier results in PMC9847093 (Protein Science : A Publication of the Protein Society, 2023).

Conditions: for pKa of monomers used to calculate theoretical number of charges per AOS: M and G monomers; for pKa: ref Draget et al., [1994]

**Q.** With `O=C(O)[C@@H]1O[C@@H](O)[C@@H](O)[C@@H](O)[C@@H]1O` [G, α‐L‐guluronate] as the compound, how does the “pKa of monomers used to calculate theoretical number of charges per AOS” value read?
**A.** 3.65

**Q.** And the pKa?
**A.** 3.7

**Q.** For `O=C(O)[C@H]1O[C@@H](O)[C@@H](O)[C@@H](O)[C@@H]1O` [M, β‐D‐mannuronate], which “pKa of monomers used to calculate theoretical number of charges per AOS” value is on record?
**A.** 3.38

**Q.** And the pKa?
**A.** 3.4
